“And” between values parts separate entries of the source, which are not always exact repeats. Equal entries are not always repeated.
Tests used:
[1] = Equilibrium solubility of rosuvastatin calcium in single hydrotropic agent solutions; type: physicochemical; conditions: for solubility thermodynamic at 24 h: aqueous hydrotropic agent solution, 37 °C, aqueous with cosolvent or surfactant or cyclodextrin, thermodynamic from solid
Protocol: At first, equilibrium solubility investigations were conducted with a variety of hydrotropic agents. […] In a 10 ml vial, 5 ml of a specific hydrotropic agent solution was accurately measured, and an excess of rosuvastatin calcium was added and physically agitated for 30 minutes until a saturated solution was generated. To achieve equilibrium solubility, the vial was shaken on a mechanical isothermal bath shaker at 37 ± 0.5°C for 24 hours, and the solution was allowed to equilibrate for another 24 hours. The resulting solution was filtered with a grade of 0.45 μm syringe filter. A portion of the sample was diluted with distilled water and examined at 242 nm using a UV-visibledouble-beam spectrophotometer against the respective solvent as a blank. The equilibrium solubility study was conducted in triplicate. The following formula was used for the calculation of solubility enhancement ratios:(1) Enhancement ratio=Solubility of drug in hydrotropic solution/Solubility of drug in water. Equation (1) is used for the calculation of the solubility enhancement ratio.

[2] = Equilibrium solubility of rosuvastatin calcium in mixed hydrotropic solutions; type: physicochemical; conditions: total 40%; for solubility at 24 h: mixed hydrotropic agent solution in distilled water; for solubility at 24 h / solubility: 37 °C, aqueous with cosolvent or surfactant or cyclodextrin, thermodynamic from solid; for solubility: mixed hydrotropic solution in distilled water
Protocol: In order to create a clear solution, two to three hydrotropic agents were mixed and dissolved in distilled water. Next, an excessive amount of calcium rosuvastatin was added, and the mixture was shaken until no more rosuvastatin was dissolved. The solutions are mechanically shaken on a mechanical isothermal bath shaker at 37 ± 0.5°C for 24 hours, followed by another 24 hours of equilibration. A grade of 0.45 μm syringe filter was used to filter the resultant solution. Using a UV-visibledouble-beam spectrophotometer, a portion of the material was diluted with distilled water and analyzed at 242 nm. The equilibrium solubility studies were conducted in triplicate. To obtain optimal solubility of rosuvastatin calcium in water, a ratio of three hydrotropic agents was adjusted.

[3] = Saturated solubility study in distilled water (pure drug, solid dispersions, physical mixture); type: physicochemical; conditions: 37 °C, thermodynamic from solid, 37 ± 0.5°C, 24 h shaking + 24 h equilibration
Protocol: To assess the solubility of pure rosuvastatin calcium, produced solid dispersions, and physical mixtures in distilled water, saturation solubility tests were performed. The saturation solubility tests were performed in triplicate according to Higuchi and Connors' technique. The excess of solid dispersions and physical mixtures were added to vials containing 10 ml of distilled water. The vials were shaken for 24 hours on a mechanical isothermal bath shaker at 37 ± 0.5°C and then left alone for another 24 hours to equilibrate. A syringe filter with a grade of 0.45 μm was used to filter the drug-containing solution. An aliquot of the filtrate was suitably diluted with the corresponding reagent, and the dilution was analyzed on a UV-visibledouble-beam spectrophotometer [18].

[4] = In vitro dissolution rate study, USP apparatus I (basket); type: physicochemical; conditions: within 45 min; 900 ml 0.05 M citrate buffer pH 6.6, 50 rpm, 37°C, 10 mg drug; listed as pure drug
Protocol: In vitro dissolution of rosuvastatin calcium solid dispersions, physical mixtures, and the pure drug was investigated using a basket stirrer in a USP dissolution apparatus (Industrial Lab) (USP apparatus I method). The dissolution medium was 900 ml of 0.05 M citrate buffer at pH 6.6, which is recommended by the US Food and Drug Administration for dissolution studies with rosuvastatin calcium. The rotation speed was 50 rpm, and the temperature was kept constant at 37 ± 0.5°C during the experiment. Each test employed solid dispersions containing 10 mg of rosuvastatin calcium. At known intervals of time of 5, 10, 15, 20, 25, 30, and 45 minutes, 5 ml of the dissolution medium sample was removed and refilled with the same quantity of medium to maintain a consistent volume throughout the experiment. The withdrawn material was filtered using a 0.45 μm syringe filter. After dilution with a 0.05 M citrate buffer solution, the samples were spectrophotometrically analyzed by detecting the absorbance at 241 nm. […] The dissolution studies of each formulation were conducted in triplicate.

[5] = due to limited water solubility; cited from earlier work
[6] = design: method as in earlier work; conditions: sodium salicylate (2.0 M); ref 18 (Nainwal et al.); cited from earlier work
[7] = cited from earlier work

CC(C)c1nc(N(C)S(C)(=O)=O)nc(-c2ccc(F)cc2)c1/C=C/[C@@H](O)C[C@@H](O)CC(=O)O [rosuvastatin calcium, Rosuvastatin calcium]
solubility thermodynamic at 24 h ([1]; citric acid 10% w/v aqueous solution): 0.45 ± 0.003 mg/mL
solubility thermodynamic at 24 h ([1]; citric acid 20% w/v aqueous solution): 0.75 ± 0.05 mg/mL
solubility thermodynamic at 24 h ([1]; citric acid 30% w/v aqueous solution): 0.78 ± 0.1 mg/mL
solubility thermodynamic at 24 h ([1]; citric acid 40% w/v aqueous solution): 0.93 ± 0.17 mg/mL
solubility thermodynamic at 24 h ([1]; mannitol 10% w/v aqueous solution): 0.49 ± 0.13 mg/mL
solubility thermodynamic at 24 h ([1]; mannitol 20% w/v aqueous solution): 0.599 ± 0.09 mg/mL
solubility thermodynamic at 24 h ([1]; mannitol 30% w/v aqueous solution): 0.66 ± 0.1 mg/mL
solubility thermodynamic at 24 h ([1]; mannitol 40% w/v aqueous solution): 0.89 ± 0.028 mg/mL
solubility thermodynamic at 24 h ([1]; sodium benzoate 10% w/v aqueous solution): 22.9 ± 1.46 mg/mL
solubility thermodynamic at 24 h ([1]; sodium benzoate 20% w/v aqueous solution): 39 ± 4.53 mg/mL
solubility thermodynamic at 24 h ([1]; sodium benzoate 30% w/v aqueous solution): 103 ± 14.1 mg/mL
solubility thermodynamic at 24 h ([1]; sodium benzoate 40% w/v aqueous solution): 119 ± 13.8 mg/mL
solubility thermodynamic at 24 h ([1]; sodium salicylate 10% w/v aqueous solution): 27 ± 1.04 mg/mL
solubility thermodynamic at 24 h ([1]; sodium salicylate 20% w/v aqueous solution): 49.9 ± 2.58 mg/mL
solubility thermodynamic at 24 h ([1]; sodium salicylate 30% w/v aqueous solution): 97.3 ± 4.13 mg/mL
solubility thermodynamic at 24 h ([1]; sodium salicylate 40% w/v aqueous solution): 125 ± 1.8 mg/mL
solubility thermodynamic at 24 h ([1]; urea 10% w/v aqueous solution): 0.85 ± 0.07 mg/mL
solubility thermodynamic at 24 h ([1]; urea 20% w/v aqueous solution): 1.06 ± 0.08 mg/mL
solubility thermodynamic at 24 h ([1]; urea 30% w/v aqueous solution): 1.13 ± 0.16 mg/mL
solubility thermodynamic at 24 h ([1]; urea 40% w/v aqueous solution): 1.36 ± 0.1 mg/mL
Solubility enhancement ratio ([1]; citric acid solution vs water (fits the 40% w/v value)): 2.192
Solubility enhancement ratio ([1]; mannitol solution vs water (fits the 40% w/v value)): 2.085
Solubility enhancement ratio ([1]; sodium benzoate solution vs water (fits the 40% w/v value)): 277.556
Solubility enhancement ratio ([1]; sodium salicylate solution (40%) vs water, listed as Rosuvastatin calcium): 292.961
Solubility enhancement ratio ([1]; sodium salicylate solution (40%) vs water, listed as rosuvastatin): 292.9
Solubility enhancement ratio ([1]; urea solution vs water (fits the 40% w/v value)): 3.198
Solubility enhancement ratio ([2]; SS : C 20 : 20 % w/v, vs water): 76.015
Solubility enhancement ratio ([2]; SS : M 20 : 20 % w/v, vs water): 128.66
Solubility enhancement ratio ([2]; SS : SB 5 : 35 % w/v, vs water): 189.78
Solubility enhancement ratio ([2]; SS : SB 10 : 30 % w/v, vs water): 120.01
Solubility enhancement ratio ([2]; SS : SB 15 : 25 % w/v, vs water): 389.37
Solubility enhancement ratio ([2]; SS : SB 20 : 20 % w/v, vs water): 421.02
Solubility enhancement ratio ([2]; SS : SB : C, each 13.333 % w/v, vs water): 112.005
Solubility enhancement ratio ([2]; SS : SB : M, each 13.333 % w/v, vs water): 172.722
Solubility enhancement ratio ([2]; SS : SB : U 10 : 15 : 15 % w/v, vs water): 200.265
Solubility enhancement ratio ([2]; SS : SB : U 20 : 05 : 15 % w/v, vs water): 210.314
Solubility enhancement ratio ([2]; SS : SB : U 20 : 10 : 10 % w/v, vs water): 235.414
Solubility enhancement ratio ([2]; SS : SB : U 20 : 15 : 05 % w/v, vs water): 301.328
Solubility enhancement ratio ([2]; SS : SB : U, each 13.333 % w/v, vs distilled water): 449.137
Solubility enhancement ratio ([2]; SS : SB : U, each 13.333 % w/v, vs distilled water, listed as rosuvastatin): 449
Solubility enhancement ratio ([2]; SS : U 20 : 20 % w/v, vs water): 181.65
solubility at 24 h ([2]; SS : C 20 : 20 % w/v): 32.5 ± 0.52 mg/mL
solubility at 24 h ([2]; SS : M 20 : 20 % w/v): 55 ± 2.72 mg/mL
solubility at 24 h ([2]; SS : SB 5 : 35 % w/v): 81.1 ± 1.54 mg/mL
solubility at 24 h ([2]; SS : SB 10 : 30 % w/v): 51.3 ± 3.38 mg/mL
solubility at 24 h ([2]; SS : SB 20 : 20 % w/v): 180 ± 40.1 mg/mL
solubility at 24 h ([2]; SS : SB : U, each 13.333 % w/v): 192 ± 38.6 mg/mL
solubility at 24 h ([2]; SS : U 20 : 20 % w/v): 77.6 ± 2.31 mg/mL
solubility ([2]; SS : SB 15 : 25 % w/v): 166 ± 7.24 mg/mL
solubility ([2]; SS : SB : C, each 13.333 % w/v): 47.9 ± 1.43 mg/mL
solubility ([2]; SS : SB : M, each 13.333 % w/v): 73.8 ± 1.49 mg/mL
solubility ([2]; SS : SB : U 10 : 15 : 15 % w/v): 85.6 ± 1.74 mg/mL
solubility ([2]; SS : SB : U 20 : 05 : 15 % w/v): 89.9 ± 5.18 mg/mL
solubility ([2]; SS : SB : U 20 : 10 : 10 % w/v): 101 ± 12.7 mg/mL
solubility ([2]; SS : SB : U 20 : 15 : 05 % w/v): 129 ± 4.02 mg/mL
solubility ([2]; SS : SB : U, each 13.333 % w/v): 192 ± 38.6 mg/mL
solubility [3]: 0.427 ± 0.005 mg/mL
In vitro drug release [4]: 40.73 ± 4.44% and 40.73%
Biopharmaceutics classification system (BCS) class [5]: class II
Increase in solubility [6]: 55 folds
t1/2 [7]: 19 h
Oral bioavailability ([7]; oral): roughly 20%
